The source of these data is patent US10428080B2, “TBK/IKK inhibitor compounds and uses thereof” (Merck Patent GmbH, priority 2015, dated 2019).

Where a name gives a salt, the structure may show the parent alone. A value given as a limit tells only on which side of the number the result lay.

In one experiment the target is T1, TBK1 (Homo sapiens, UniProt Q9UHD2).
T1 sequence (Q9UHD2 1-729): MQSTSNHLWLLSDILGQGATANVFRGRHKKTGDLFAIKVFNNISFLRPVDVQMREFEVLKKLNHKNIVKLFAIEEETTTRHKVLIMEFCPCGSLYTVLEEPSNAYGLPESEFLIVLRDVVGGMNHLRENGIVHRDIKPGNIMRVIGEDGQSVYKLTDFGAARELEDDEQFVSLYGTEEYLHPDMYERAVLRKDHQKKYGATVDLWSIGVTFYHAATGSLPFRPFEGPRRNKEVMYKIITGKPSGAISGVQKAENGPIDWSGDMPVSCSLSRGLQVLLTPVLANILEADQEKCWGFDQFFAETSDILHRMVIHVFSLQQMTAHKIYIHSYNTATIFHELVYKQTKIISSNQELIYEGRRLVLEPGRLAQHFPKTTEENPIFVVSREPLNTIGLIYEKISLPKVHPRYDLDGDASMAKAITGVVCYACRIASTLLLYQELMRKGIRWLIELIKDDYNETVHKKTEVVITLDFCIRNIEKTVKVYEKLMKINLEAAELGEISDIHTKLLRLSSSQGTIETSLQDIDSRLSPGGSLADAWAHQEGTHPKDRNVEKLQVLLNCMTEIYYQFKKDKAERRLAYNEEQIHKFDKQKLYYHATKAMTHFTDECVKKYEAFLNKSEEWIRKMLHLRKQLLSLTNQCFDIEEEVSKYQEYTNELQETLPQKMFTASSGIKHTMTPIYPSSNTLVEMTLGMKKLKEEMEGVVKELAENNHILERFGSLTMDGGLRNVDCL
Description: TBK Biochemical Assay. Conditions: read-out: TBK1 IC50. Put shortly: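 TBK1 enzyme and substrate incubated with compounds (10-point 1:4 dilution, top 30 uM final, 1% DMSO) for 90 min at 25° C, then stopped. Substrate/product peaks read by microfluidic mobility-shift (Caliper LabChip); 10 uM staurosporine as full-inhibition control.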

The next experiment deals with T2, IKKε (Homo sapiens, UniProt Q14164).
T2 sequence (Q14164 1-716): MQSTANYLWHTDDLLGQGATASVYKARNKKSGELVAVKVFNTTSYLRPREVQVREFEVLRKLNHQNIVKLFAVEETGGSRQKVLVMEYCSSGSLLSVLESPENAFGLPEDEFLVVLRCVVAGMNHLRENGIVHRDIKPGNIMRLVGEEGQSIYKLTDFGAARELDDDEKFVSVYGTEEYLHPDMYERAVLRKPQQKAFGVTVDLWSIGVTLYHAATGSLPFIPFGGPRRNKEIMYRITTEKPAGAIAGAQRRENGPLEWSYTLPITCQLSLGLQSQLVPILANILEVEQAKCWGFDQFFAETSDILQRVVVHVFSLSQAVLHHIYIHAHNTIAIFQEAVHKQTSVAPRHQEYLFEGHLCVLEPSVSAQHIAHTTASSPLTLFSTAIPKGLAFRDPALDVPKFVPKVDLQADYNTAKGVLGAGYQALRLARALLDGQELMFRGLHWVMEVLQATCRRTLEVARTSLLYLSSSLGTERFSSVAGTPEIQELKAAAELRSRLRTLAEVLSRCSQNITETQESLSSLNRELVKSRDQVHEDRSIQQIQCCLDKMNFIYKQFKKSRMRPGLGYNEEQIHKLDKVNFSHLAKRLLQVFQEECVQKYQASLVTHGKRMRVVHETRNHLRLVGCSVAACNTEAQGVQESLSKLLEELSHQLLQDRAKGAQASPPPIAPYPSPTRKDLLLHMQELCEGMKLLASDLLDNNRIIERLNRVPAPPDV
Kind of experiment: IKKe Biochemical Assay. Particulars: read-out: IKKε IC50. Summed up: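 Recombinant IKKε and substrate were incubated with compound (10-point 1:4 series, top 30 uM final, 1% DMSO) for 90 min at 25° C, then stopped. Substrate-to-product conversion was read by LabChip microfluidic mobility shift; 10 uM staurosporine served as full-inhibition wells.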

In experiment [1] the test system is phosphorylation of the IRF-3 protein in MDA-MB-468 cells. Description: pIRF3 immunocytochemistry cell based assay. Particulars: Homo sapiens; MDA-MB-468 cells, Poly(I:C) stimulation; read-out: pIRF3 IC50. As to the method:
The purpose of the pIRF3 immunocytochemistry cell based assay was to identify small molecules which modulates TBK/IKKe kinase activity through on target substrate phosphorylation of the IRF-3 protein. On the first day of the experiment, MDA-MB-468 cells were plated in 384 well, black, clear-bottom, Poly D lysine coated plates at a density of 5000 cells/well in 45 ul of complete DMEM and allowed to adhere overnight. On the second day compounds were added to cells at a starting concentration of 10 uM with a serial dilution of 3-fold for a total of 10 points. The cells were incubated for 1 hr at 37° C. Cells were then stimulated with Poly(I:C) at a final concentration of 10 ug/ml, and were incubated for 2 hr at 37° C. Following the incubation, media was removed from the wells and the cells were fixed with 4% PFA for 15 min at RT. Cells were washed at least 3 times with PBS, and then permeabilized with ice-cold methanol for 10 min at RT. The washing step was repeated and the cells were then blocked using 10% goat serum/1% BSA, made up in PBS and allowed to incubate at RT for 1 hr. The cells were washed again and then treated with an anti-pIRF3 antibody at 4° C. overnight (1:250 dilution of Abcam ab76493 in PBS containing 1% BSA). On the third day the primary antibody was washed off and pIRF3 was detected by adding the secondary antibody conjugated to AlexaFluor488 (1:200 dilution of secondary antibody in PBS containing 1% BSA) for 1 hr at RT. Cells were washed and then counterstained with PI/RNase staining buffer for 15 min at RT and read on the Acumen Explorer laser scanning cytometer. The percentage of phosphorylation of the IRF-3 protein was calculated using the following algorithm, a modified version of the mean half width intensity (pIRF3 staining)/(PI staining or # of cells)×100%). IC50 curves were generated using the Genedata software.

As for `COc1cc(C(=O)N2CC3CCC(O)C3C2)ccc1-c1cc2nccc(-c3ccc(OC4CCOCC4)c(C#N)c3)c2o1` (stereo not drawn) [Compound 18, 5-{2-[4-(4-Hydroxy-hexahydro-cyclopenta[c]pyrrole-2-carbonyl)-2-methoxy-phenyl]-furo[3,2-b]pyridin-7-yl}-2-(tetrahydro-pyran-4-yloxy)-benzonitrile], the values for the 50% inhibitory concentration (IC50) (at TBK1; at IKKε; in experiment [1]) were under 100 nM, under 100 nM and 100 to 1000 nM, respectively.

As to `COc1cc(C(=O)N2CC(N3CCCC3)C2)ccc1-c1cc2nccc(-c3ccc(OC4CCOCC4)c(C#N)c3)c2o1` [Compound 20, 5-{2-[2-Methoxy-4-(3-pyrrolidin-1-yl-azetidine-1-carbonyl)-phenyl]-furo[3,2-b]pyridin-7-yl}-2-(tetrahydro-pyran-4-yloxy)-benzonitrile], the half-inhibitory concentration (IC50) (on TBK1; on IKKε; in experiment [1]) was under 100 nM in each case.

With `COc1cc(C(=O)O)ccc1-c1cc2nccc(-c3ccc(OC4CCOCC4)c(C#N)c3)c2o1` [Compound 21], the 50% inhibitory concentration (IC50) is under 100 nM at TBK1, under 100 nM on IKKε and 1000 to 5000 nM in experiment [1].

Regarding `COc1cc(C(=O)N(C)C)ccc1-c1cc2nccc(-c3ccc(N4CC[C@H](F)C4)c(C#N)c3)c2o1` [Compound 23, 4-{7-[3-Cyano-4-((S)-3-fluoro-pyrrolidin-1-yl)-phenyl]-furo[3,2-b]pyridin-2-yl}-3-methoxy-N,N-dimethyl-benzamide], the IC50 at TBK1 is under 100 nM; at IKKε, under 100 nM; in experiment [1] it was 100 to 1000 nM.

`COc1cc(C(=O)N2CC(N(C)C)C2)ccc1-c1cc2nccc(-c3ccc(OC4CCOCC4)c(C#N)c3)c2o1` [Compound 24, 5-{2-[4-(3-Dimethylamino-azetidine-1-carbonyl)-2-methoxy-phenyl]-furo[3,2-b]pyridin-7-yl}-2-(tetrahydro-pyran-4-yloxy)-benzonitrile]: the concentration for half-maximal inhibition (IC50) (on TBK1; on IKKε; in experiment [1]) was under 100 nM throughout.

Regarding `COc1cc(C(=O)N2CCCC3(CCNC3)C2)ccc1-c1cc2nccc(-c3ccc(OC4CCOCC4)c(C#N)c3)c2o1` (stereo not drawn) [Compound 25, 5-{2-[4-(2,7-Diaza-spiro[4.5]decane-7-carbonyl)-2-methoxy-phenyl]-furo[3,2-b]pyridin-7-yl}-2-(tetrahydro-pyran-4-yloxy)-benzonitrile], the figures for the IC50 (at TBK1; on IKKε; in experiment [1]) were under 100 nM, under 100 nM and 100 to 1000 nM, respectively.

As to `COc1cc(C(=O)N2CCCCC2)ccc1-c1cc2nccc(-c3ccc(OC4CCOCC4)c(C#N)c3)c2o1` [Compound 27, 5-{2-[2-Methoxy-4-(piperidine-1-carbonyl)-phenyl]-furo[3,2-b]pyridin-7-yl}-2-(tetrahydro-pyran-4-yloxy)-benzonitrile], the 50% inhibitory concentration (IC50) on TBK1 is under 100 nM; at IKKε, under 100 nM; in experiment [1], 100 to 1000 nM.

For `COc1cc(C(=O)NC2CN(C)C2)ccc1-c1cc2nccc(-c3ccc(OC4CCOCC4)c(C#N)c3)c2o1` [Compound 28, 4-{7-[3-Cyano-4-(tetrahydro-pyran-4-yloxy)-phenyl]-furo[3,2-b]pyridin-2-yl}-3-methoxy-N-(1-methyl-azetidin-3-yl)-benzamide], the half-inhibitory concentration (IC50) (on TBK1; at IKKε; in experiment [1]) was under 100 nM throughout.

In the case of `COc1cc(C(=O)N2CC3(CCCN3)C2)ccc1-c1cc2nccc(-c3ccc(OC4CCOCC4)c(C#N)c3)c2o1` [Compound 29, 5-{2-[4-(2,5-Diaza-spiro[3.4]octane-2-carbonyl)-2-methoxy-phenyl]-furo[3,2-b]pyridin-7-yl}-2-(tetrahydro-pyran-4-yloxy)-benzonitrile hydrochloride], the IC50 at TBK1 is under 100 nM; at IKKε, under 100 nM; in experiment [1] it was 100 to 1000 nM.

Consider `COc1cc(C(=O)N(C)C)ccc1-c1cc2nccc(-c3ccc(OC4CCOCC4)c(C#N)n3)c2o1` [Compound 31, 4-{7-[6-Cyano-5-(tetrahydro-pyran-4-yloxy)-pyridin-2-yl]-furo[3,2-b]pyridin-2-yl}-3-methoxy-N,N-dimethyl-benzamide], for which the IC50 (on TBK1; at IKKε; in experiment [1]) was under 100 nM in each case.

For the molecule `COc1cc(C(=O)N2C[C@H]3C[C@@H](O)C[C@H]3C2)ccc1-c1cc2nccc(-c3ccc(OC4CCOCC4)c(C#N)c3)c2o1` [Compound 32, 5-{2-[4-((3aR,5R,6aS)-5-Hydroxy-hexahydro-cyclopenta[c]pyrrole-2-carbonyl)-2-methoxy-phenyl]-furo[3,2-b]pyridin-7-yl}-2-(tetrahydro-pyran-4-yloxy)-benzonitrile], the 50% inhibitory concentration (IC50) (at TBK1; on IKKε; in experiment [1]) was under 100 nM each time.

Regarding `COc1cc(C(=O)N2CC[C@@H](N(C)C)C2)ccc1-c1cc2nccc(-c3ccc(N4CC[C@H](F)C4)c(C#N)c3)c2o1` [Compound 33, 5-{2-[4-((R)-3-Dimethylamino-pyrrolidine-1-carbonyl)-2-methoxy-phenyl]-furo[3,2-b]pyridin-7-yl}-2-((S)-3-fluoro-pyrrolidin-1-yl)-benzonitrile], the concentration for half-maximal inhibition (IC50) was under 100 nM at TBK1, under 100 nM on IKKε and 100 to 1000 nM in experiment [1].

Consider `COc1cc(C(=O)N2CCC3(CC2)NCNC3=O)ccc1-c1cc2nccc(-c3ccc(NC4CCOCC4)c(C#N)c3)c2o1` [Compound 34, 5-{2-[2-Methoxy-4-(4-oxo-1,3,8-triaza-spiro[4.5]decane-8-carbonyl)-phenyl]-furo[3,2-b]pyridin-7-yl}-2-(tetrahydro-pyran-4-ylamino)-benzonitrile], for which the results for the concentration for half-maximal inhibition (IC50) (at TBK1; at IKKε; in experiment [1]) were under 100 nM, under 100 nM and 100 to 1000 nM, respectively.

For the molecule `COc1cc(C(=O)N(C)C)ccc1-c1cc2nccc(-c3ccc(N4CCC(F)C4)c(C#N)c3)c2o1` (stereo not drawn) [Compound 35], the IC50 at TBK1 is under 100 nM; on IKKε, under 100 nM; in experiment [1] it was 100 to 1000 nM.

Consider `COc1cc(C(=O)N(C)C)ccc1-c1cc2nccc(-c3ccc(NCC4CCOC4)c(C#N)c3)c2o1` (stereo not drawn) [Compound 36], for which the IC50 is under 100 nM on TBK1, under 100 nM at IKKε and 100 to 1000 nM in experiment [1].

A word on the IC50: it is the concentration needed to halve the response being measured.
